From patent US11459315B2, “Modulators of methyl modifying enzymes, compositions and uses thereof” (Constellation Pharmaceuticals, Inc., priority 2017, dated 2022)
Where two headings read alike, the source gives them in different places.

Experiments:
[1] = system: H3K27me3 mark in HeLa cells (EZH2); assay: H3K27me3 Alpha Hela Assay (AlphaLISA); format: cell-based
Method in brief: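 HeLa cells (1,000/well) treated with ten 3-fold compound doses for 72 h at 37 °C; lysates extracted and H3K27me3 detected by AlphaLISA with anti-K27me3 acceptor beads, biotinylated anti-H3 (3 nM) and streptavidin donor beads. EC50 from DMSO-normalized dose-response curves; duplicate plate assessed viability.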

[2] = biological target: T1, PRC2 containing wt EZH2 (Homo sapiens (Human), UniProt Q15910); assay: EZH2 residence time assay (100-fold dilution of pre-formed enzyme-inhibitor complex); format: biochemical
T1 sequence (Q15910 whole entry): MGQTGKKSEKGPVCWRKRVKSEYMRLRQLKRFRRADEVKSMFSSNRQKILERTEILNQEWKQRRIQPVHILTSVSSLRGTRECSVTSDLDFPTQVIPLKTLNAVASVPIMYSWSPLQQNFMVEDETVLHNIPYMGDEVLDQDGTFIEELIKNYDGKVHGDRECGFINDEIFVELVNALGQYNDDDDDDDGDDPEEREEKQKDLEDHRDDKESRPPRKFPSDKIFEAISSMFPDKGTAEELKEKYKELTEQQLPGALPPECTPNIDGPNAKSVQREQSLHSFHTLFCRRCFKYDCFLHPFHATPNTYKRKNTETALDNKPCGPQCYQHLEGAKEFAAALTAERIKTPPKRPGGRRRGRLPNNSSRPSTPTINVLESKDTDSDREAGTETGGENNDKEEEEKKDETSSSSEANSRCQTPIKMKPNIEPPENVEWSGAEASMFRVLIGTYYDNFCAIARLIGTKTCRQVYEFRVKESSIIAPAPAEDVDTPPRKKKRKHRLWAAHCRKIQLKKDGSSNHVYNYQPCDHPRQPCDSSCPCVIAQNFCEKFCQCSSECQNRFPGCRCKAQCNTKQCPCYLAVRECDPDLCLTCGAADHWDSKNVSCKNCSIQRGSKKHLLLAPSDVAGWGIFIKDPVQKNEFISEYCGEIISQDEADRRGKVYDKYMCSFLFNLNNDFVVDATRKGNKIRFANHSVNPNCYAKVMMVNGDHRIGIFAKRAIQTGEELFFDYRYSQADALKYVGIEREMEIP
T1 sequence (O75530 whole entry partner): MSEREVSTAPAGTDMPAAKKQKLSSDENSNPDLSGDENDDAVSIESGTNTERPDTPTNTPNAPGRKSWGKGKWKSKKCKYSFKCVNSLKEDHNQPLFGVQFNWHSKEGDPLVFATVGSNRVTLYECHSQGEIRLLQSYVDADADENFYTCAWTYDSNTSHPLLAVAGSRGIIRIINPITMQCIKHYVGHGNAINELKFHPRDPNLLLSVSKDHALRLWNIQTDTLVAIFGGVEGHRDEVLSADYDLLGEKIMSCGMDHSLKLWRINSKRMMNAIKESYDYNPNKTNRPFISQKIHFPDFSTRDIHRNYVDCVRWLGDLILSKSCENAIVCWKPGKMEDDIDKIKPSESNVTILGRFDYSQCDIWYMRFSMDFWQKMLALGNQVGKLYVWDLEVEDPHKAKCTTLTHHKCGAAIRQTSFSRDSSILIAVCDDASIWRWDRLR
T1 sequence (Q15022 whole entry partner): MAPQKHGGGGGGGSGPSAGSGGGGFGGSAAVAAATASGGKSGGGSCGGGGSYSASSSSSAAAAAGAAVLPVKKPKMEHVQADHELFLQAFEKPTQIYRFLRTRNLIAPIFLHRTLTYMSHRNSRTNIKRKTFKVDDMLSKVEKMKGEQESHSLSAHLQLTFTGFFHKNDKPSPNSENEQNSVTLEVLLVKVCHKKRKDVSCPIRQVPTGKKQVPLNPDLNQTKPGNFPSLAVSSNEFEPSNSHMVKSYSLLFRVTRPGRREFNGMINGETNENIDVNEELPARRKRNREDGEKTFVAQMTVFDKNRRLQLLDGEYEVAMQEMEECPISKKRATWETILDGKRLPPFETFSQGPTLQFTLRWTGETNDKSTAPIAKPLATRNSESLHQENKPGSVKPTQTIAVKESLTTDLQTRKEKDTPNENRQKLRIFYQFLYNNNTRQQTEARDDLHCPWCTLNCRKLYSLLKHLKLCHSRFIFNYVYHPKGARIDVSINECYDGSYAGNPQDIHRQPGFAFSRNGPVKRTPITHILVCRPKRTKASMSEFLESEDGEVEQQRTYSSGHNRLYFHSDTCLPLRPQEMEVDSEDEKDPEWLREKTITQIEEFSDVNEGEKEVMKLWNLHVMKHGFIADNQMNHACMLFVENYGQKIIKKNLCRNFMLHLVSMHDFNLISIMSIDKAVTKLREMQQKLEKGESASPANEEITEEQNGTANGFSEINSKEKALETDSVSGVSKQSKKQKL
T1 sequence (Q09028 whole entry partner): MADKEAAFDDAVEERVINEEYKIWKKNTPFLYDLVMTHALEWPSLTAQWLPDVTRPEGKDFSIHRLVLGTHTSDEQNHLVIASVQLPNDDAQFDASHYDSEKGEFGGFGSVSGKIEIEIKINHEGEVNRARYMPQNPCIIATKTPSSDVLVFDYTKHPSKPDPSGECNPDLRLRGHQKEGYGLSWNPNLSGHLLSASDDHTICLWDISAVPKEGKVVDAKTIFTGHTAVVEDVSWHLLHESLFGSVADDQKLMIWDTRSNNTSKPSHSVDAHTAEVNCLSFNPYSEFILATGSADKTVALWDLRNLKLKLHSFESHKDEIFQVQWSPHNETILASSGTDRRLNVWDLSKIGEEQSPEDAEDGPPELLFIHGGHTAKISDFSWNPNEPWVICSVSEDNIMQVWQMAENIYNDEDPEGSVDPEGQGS
T1 sequence (Q6ZN18 whole entry partner): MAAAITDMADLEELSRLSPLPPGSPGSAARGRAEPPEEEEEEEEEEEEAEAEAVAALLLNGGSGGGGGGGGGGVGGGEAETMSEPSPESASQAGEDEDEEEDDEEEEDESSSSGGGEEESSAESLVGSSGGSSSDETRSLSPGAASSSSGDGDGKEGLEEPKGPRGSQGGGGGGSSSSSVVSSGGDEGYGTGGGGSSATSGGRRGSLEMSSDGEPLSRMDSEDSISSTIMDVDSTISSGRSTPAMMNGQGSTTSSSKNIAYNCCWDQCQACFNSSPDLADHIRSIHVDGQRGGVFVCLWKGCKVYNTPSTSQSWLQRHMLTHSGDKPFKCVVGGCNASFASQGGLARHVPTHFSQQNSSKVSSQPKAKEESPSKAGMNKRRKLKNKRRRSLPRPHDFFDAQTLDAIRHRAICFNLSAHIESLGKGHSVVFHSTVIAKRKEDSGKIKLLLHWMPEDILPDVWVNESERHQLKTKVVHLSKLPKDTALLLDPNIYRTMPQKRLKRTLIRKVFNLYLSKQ
Description: EZH2 residence time assay: Compound residence times were assessed by monitoring the recovery of enzyme activity following a 100-fold dilution of pre-formed enzyme-inhibitor complex (dilution reaction), and comparing it to the activity of an undiluted control with the same final concentrations of all reagents (control reaction). Enzyme activity was measured by incorporation of ^3H-SAM into a biotinylated H3 peptide. […] For the control reaction, 0.202 nM PRC2 was pre-incubated with 1 μM activating peptide, 1.01 μM SAM, 1.01 μM ^3H-SAM, and compound at 6.06 times its Ki for 2 h in 138.6 μL of buffer, then the reaction was initiated by the addition of 1.4 μL 500 μM substrate peptide in water. Reactions were quenched at various time points spanning up to 10 hours, by transferring 8 μL aliquots from the reaction vessel to a plate containing 8 μL per well of STOP solution (50 mM Tris pH 8.5, 200 mM EDTA, 2 mM SAH). After the last time point, 12 μL of the quenched solutions were transferred to a streptavidin coated FlashPlate (PerkinElmer) containing 40 μL per well of STOP solution, incubated 1-8 h, washed, and read in a TopCount plate reader (PerkinElmer). A custom script was used to fit control reaction progress data to a straight line and dilution reaction progress data:
Where y is the product formed, t is the reaction time, vi is the initial velocity, vs is the steady state velocity, and kobs is the rate constant for the transition from the initial velocity phase of the curve to the steady state velocity phase of the curve. In fitting the dilution reaction progress data, vs was constrained to the slope of the line fitted to the control reaction progress data. The fitted value of kobs was then transformed into residence time:
Where τ is residence time, Ki is the inhibition constant, [EI] is the calculated equilibrium concentration of enzyme-inhibitor complex, [E] is the calculated equilibrium concentration of free enzyme, and [I] is the calculated equilibrium concentration of free inhibitor.

[3] = biological target: T1, PRC2 containing wt EZH2; assay: EZH2 biochemical assay (IC50), 3H-SAM incorporation into biotinylated H3 peptide; settings: 30 pM PRC2 containing wt EZH2; 3-5 h pre-incubation; read-out: EZH2 (IC50)
Method in brief: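 Activity was measured as ³H-methyl transfer to a biotinylated H3K27me1 peptide over 18-22 h at room temperature, with capture on streptavidin flash plates. The 30 pM wt-EZH2 PRC2 complex was first pre-incubated 3-5 h with compound, 450 nM SAM/450 nM ³H-SAM and 2 µM H3K27me3 activator (pH 8.5, 0.8% DMSO). Four-parameter fits gave IC50.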

[4] = Homo sapiens, HeLa, HeLa cell assay, Table 3 classes, read-out: EC50 Cellular Activity
[5] = HeLa cell assay, Table 3 classes, read-out: EC50 Cellular Activity
[6] = Homo sapiens, HeLa, 72 h, HeLa cells, 72 hrs, read-out: EZH2 Cell H3K27me3 Alpha HeLa (EC50 K27me3)

In the case of `Cc1cc(C)c(CNC(=O)c2c(C)n([C@H](C)C34CC(NC5COC5)(C3)C4)c3ccccc23)c(=O)[nH]1`, the EC50 [1, 4] is reported as 25 to 125 nM and the residence time ([2]; read-out: Residence Time) is reported as < 30 min.
In the case of `Cc1cc(C)c(CNC(=O)c2c(C)n([C@H](C)C34CC(N(C)CC(F)(F)F)(C3)C4)c3ccccc23)c(=O)[nH]1`, the EC50 [1, 4] is reported as > 125 nM and the residence time ([2]; read-out: Residence Time) is reported as < 30 min.
`COc1cc(C)[nH]c(=O)c1CNC(=O)c1c(C)n([C@H](C)C23CC(N(C)CC(F)(F)F)(C2)C3)c2ccccc12` gave an EC50 [1, 4] of 25 to 125 nM and a residence time ([2]; read-out: Residence Time) of 30 to 300 min.
For `Cc1cc(C)c(CNC(=O)c2c(C)n([C@H](C)C3CCN(CC(C)(C)O)CC3)c3ccccc23)c(=O)[nH]1`, the EC50 [1, 4] was > 125 nM and the residence time [2] was < 30 min.
For `COc1cc(C)[nH]c(=O)c1CNC(=O)c1c(C)n([C@H](C)C2CCN(CC(C)(C)O)CC2)c2ccccc12`, the EC50 [1, 4] was > 125 nM and the residence time [2] was < 30 min.
For `Cc1cc(C)c(CNC(=O)c2c(C)n([C@H](C)C3CCN(CC(F)(F)F)CC3)c3ccccc23)c(=O)[nH]1`, the EC50 [1, 4] was 25 to 125 nM and the residence time [2] was < 30 min.
Work on `COc1cc(C)[nH]c(=O)c1CNC(=O)c1c(C)n([C@H](C)C2CCN(CC(F)(F)F)CC2)c2ccccc12` yielded an EC50 [1, 4] of 5 to 25 nM and a residence time ([2]; read-out: Residence Time) of 30 to 300 min.
In the case of `Cc1cc(Cl)c(CNC(=O)c2c(C)n([C@H](C)C3CCOCC3)c3ccccc23)c(=O)[nH]1`, the EC50 [1, 4] is reported as 25 to 125 nM and the residence time [2] is reported as < 30 min.
`CSc1cc(C)[nH]c(=O)c1CNC(=O)c1c(C)n([C@H](C)C2CCC(N3CC(OC4CC4)C3)CC2)c2ncccc12` (stereo partly shown) was tested, and the EC50 [1, 4] was < 5 nM and the residence time ([2]; read-out: Residence Time) was 300 to 2100 min.
`CSc1cc(C)[nH]c(=O)c1CNC(=O)c1c(C)n([C@H](C)C2CCC(NC3(C(F)(F)F)COC3)CC2)c2ccccc12` (stereo partly shown) was tested, and the EC50 [1, 4] was < 5 nM and the residence time [2] was 300 to 2100 min.
`COC1CN(C2CCC([C@@H](C)n3c(C)c(C(=O)NCc4c(Cl)cc(C)[nH]c4=O)c4ccccc43)CC2)C1` (single isomer, unassigned) was tested, and the EC50 [1, 4] was 5 to 25 nM and the residence time [2] was 30 to 300 min.
Compound `COC1CN(C2CCC([C@@H](C)n3c(C)c(C(=O)NCc4c(C)cc(C)[nH]c4=O)c4ccccc43)CC2)C1` (single isomer, unassigned) has an EC50 [1, 4] of 5 to 25 nM and a residence time [2] of 30 to 300 min.
For `CSc1cc(C)[nH]c(=O)c1CNC(=O)c1c(C)n([C@H](C)C2CCC(N3CC(OC(F)F)C3)CC2)c2ncccc12` (single isomer, unassigned), the EC50 [1, 4] was < 5 nM and the residence time ([2]; read-out: Residence Time) was 300 to 2100 min.
With `Cc1cc(Cl)c(CNC(=O)c2c(C)n([C@H](C)C3CCC(NC4(C)COC4)CC3)c3ccccc23)c(=O)[nH]1` (single isomer, unassigned) [drawing 201] the EC50 [1, 5] was 25 to 125 nM and the “residence time” value [2] was “D (a t value of less or equal than 0.5 hours)”.
`Cc1cc(Cl)c(CNC(=O)c2c(C)n([C@H](C)C3CCC(NC4(C)COC4)CC3)c3ccccc23)c(=O)[nH]1` (single isomer, unassigned) [drawing 202] was tested, and the EC50 [1, 5] was 5 to 25 nM and the “residence time” value [2] was “B (a t value of greater than 5 hours but less or equal than 35 hours)”.
In the case of `Cc1cc(C)c(CNC(=O)c2c(C)n([C@H](C)C3CCC(NC4(C)COC4)CC3)c3ccccc23)c(=O)[nH]1` (single isomer, unassigned) [drawing 203], the EC50 [1, 5] is reported as 25 to 125 nM and the “residence time” value [2] is reported as “D (a t value of less or equal than 0.5 hours)”.
`Cc1cc(C)c(CNC(=O)c2c(C)n([C@H](C)C3CCC(NC4(C)COC4)CC3)c3ccccc23)c(=O)[nH]1` (single isomer, unassigned) [drawing 204] was tested, and the EC50 [1, 5] was < 5 nM and the “residence time” value [2] was “B (a t value of greater than 5 hours but less or equal than 35 hours)”.
In the case of `CSc1cc(C)[nH]c(=O)c1CNC(=O)c1c(C)n([C@H](C)C2CCC(NC3(C)COC3)CC2)c2ccccc12` (single isomer, unassigned) [drawing 205], the EC50 [1, 4] is reported as < 5 nM and the “residence time” value [2] is reported as “A (value of greater than 35 hours)”.
In the case of `CSc1cc(C)[nH]c(=O)c1CNC(=O)c1c(C)n([C@H](C)C2CCC(NC3(C)COC3)CC2)c2ccccc12` (single isomer, unassigned) [drawing 206], the EC50 [1, 5] is reported as 5 to 25 nM and the “residence time” value [2] is reported as “B (a t value of greater than 5 hours but less or equal than 35 hours)”.
In the case of `COc1cc(C)[nH]c(=O)c1CNC(=O)c1c(C)n([C@H](C)C2CCC(NC3COC3)CC2)c2ccccc12` (single isomer, unassigned) [drawing 207], the EC50 [1, 5] is reported as > 125 nM and the residence time ([2]; read-out: Residence Time) is reported as < 30 min.
For `COc1cc(C)[nH]c(=O)c1CNC(=O)c1c(C)n([C@H](C)C2CCC(NC3COC3)CC2)c2ccccc12` (single isomer, unassigned) [drawing 208], the EC50 [1, 5] was 25 to 125 nM and the “residence time” value [2] was “C (a t value of greater than 0.5 hours but less or equal than 5 hours)”.
`Cc1cc(C)c(CNC(=O)c2c(C)n([C@H](C)C3CCC(NC4COC4)CC3)c3ccccc23)c(=O)[nH]1` (single isomer, unassigned) [drawing 209] was tested, and the EC50 [1, 5] was > 125 nM and the residence time ([2]; read-out: Residence Time) was < 30 min.
`CCS(=O)(=O)N1CCC([C@@H](C)n2c(C)c(C(=O)NCc3c(SC)cc(C)[nH]c3=O)c3ccccc32)CC1` [Example 146, (R)-1-(1-(1-(ethylsulfonyl)piperidin-4-yl)ethyl)-2-methyl-N-((6-methyl-4-(methylthio)-2-oxo-1,2-dihydropyridin-3-yl)methyl)-1H-indole-3-carboxamide] was tested, and the IC50 [3] was < 0.5 nM and the EC50 [1, 6] was < 10 nM.
With `COC1CC(N2CC[C@H]([C@@H](C)n3c(C)c(C(=O)NCc4c(SC)cc(C)[nH]c4=O)c4ccccc43)[C@@H](F)C2)C1` (stereo partly drawn) [Example 152, 1-((R)-1-((3R,4R)-3-fluoro-1-(3-methoxycyclobutyl)piperidin-4-yl)ethyl)-2-methyl-N-((6-methyl-4-(methylthio)-2-oxo-1,2-dihydropyridin-3-yl)methyl)-1H-indole-3-carboxamide] the IC50 [3] was < 0.5 nM and the EC50 [1, 6] was < 10 nM.
`COC1CC(N2CC[C@H]([C@@H](C)n3c(C)c(C(=O)NCc4c(SC)cc(C)[nH]c4=O)c4ccccc43)[C@H](F)C2)C1` (stereo partly drawn) [Example 153, 1-((R)-1-((3S,4R)-3-fluoro-1-(3-methoxycyclobutyl)piperidin-4-yl)ethyl)-2-methyl-N-((6-methyl-4-(methylthio)-2-oxo-1,2-dihydropyridin-3-yl)methyl)-1H-indole-3-carboxamide] was tested, and the IC50 [3] was < 0.5 nM and the EC50 [1, 6] was < 10 nM.
In the case of `CSc1cc(C)[nH]c(=O)c1CNC(=O)c1c(C)n([C@H](C)C2CCC(N3CC(F)(C4CC4)C3)CC2)c2ncccc12` (stereo partly drawn) [Example 157, 1-((R)-1-(4-(3-cyclopropyl-3-fluoroazetidin-1-yl)cyclohexyl)ethyl)-2-methyl-N-((6-methyl-4-(methylthio)-2-oxo-1,2-dihydropyridin-3-yl)methyl)-1H-pyrrolo[2,3-b]pyridine-3-carboxamide], the IC50 [3] is reported as < 0.5 nM and the EC50 [1, 6] is reported as 10 to 100 nM.
For `CSc1cc(C)[nH]c(=O)c1CNC(=O)c1c(C)n([C@H](C)C2CCC(N3CC(O)(C(C)C)C3)CC2)c2ncccc12` (stereo partly drawn) [Example 158, 1-((R)-1-(4-(3-hydroxy-3-isopropylazetidin-1-yl)cyclohexyl)ethyl)-2-methyl-N-((6-methyl-4-(methylthio)-2-oxo-1,2-dihydropyridin-3-yl)methyl)-1H-pyrrolo[2,3-b]pyridine-3-carboxamide], the IC50 [3] was < 0.5 nM and the EC50 [1, 6] was > 100 nM.
In the case of `CSc1cc(C)[nH]c(=O)c1CNC(=O)c1c(C)n([C@H](C)C2CCC(N3CC(n4ccnn4)C3)CC2)c2ccccc12` (stereo partly drawn) [Example 160, 1-((R)-1-(4-(3-(1H-1,2,3-triazol-1-yl)azetidin-1-yl)cyclohexyl)ethyl)-2-methyl-N-((6-methyl-4-(methylthio)-2-oxo-1,2-dihydropyridin-3-yl)methyl)-1H-indole-3-carboxamide], the IC50 [3] is reported as < 0.5 nM and the EC50 [1, 6] is reported as < 10 nM.
In the case of `CSc1cc(C)[nH]c(=O)c1CNC(=O)c1c(C)n([C@H](C)C2CCC(NC3(C(F)(F)F)CC3)CC2)c2ncccc12` (stereo partly drawn) [Example 161, 2-methyl-N-((6-methyl-4-(methylthio)-2-oxo-1,2-dihydropyridin-3-yl)methyl)-1-((R)-1-(4-((1-(trifluoromethyl)cyclopropyl)amino)cyclohexyl)ethyl)-1H-pyrrolo[2,3-b]pyridine-3-carboxamide], the IC50 [3] is reported as < 0.5 nM and the EC50 [1, 6] is reported as 10 to 100 nM.
